Like-named read-outs stand apart in the source and are kept apart here.
Columns and labels:
[1] = target: AM2 V27A (valine→alanine mutation at residue 27 in the M2 protein) (Influenza A virus, UniProt P0DOF5, V27A); format: cell-based, influenza virus A/Udorn/72
[2] = target: AM2 S31N (serine→asparagine mutation at residue 31 in the M2 protein) (Influenza A virus, UniProt P0DOF5, S31N); format: cell-based, influenza virus A/Udorn/72

SMILES | V27A OOcyte Inhibition at 100 uM (%) [1] | S31N OOcyte Inhibition at 100 uM (%) [2] | V27A OOcyte Inhibition at 100 uM (%) ([1]; pH 5.5) | S31N OOcyte Inhibition at 100 uM (%) ([2]; pH 5.5)
c1coc(-c2ccc(CNC34CC5CC(CC(C5)C3)C4)s2)c1 [Example 136a, N-((5-(Furan-2-yl)thiophen-2-yl)methyl)adamantan-1-amine] | B (key: (A)=31-95%; (B)=0-30%) | A (key: (A)=31-95%; (B)=0-30%) |  | 
c1ccc(Oc2ccc(CNC34CC5CC(CC(C5)C3)C4)cc2)cc1 [Example 13a, Adamantan-1-yl-(4-phenoxy-benzyl)-amine] | B (key: (A)=31-95%; (B)=0-30%) | A (key: (A)=31-95%; (B)=0-30%) |  | 
c1csc(-c2ccc(CNC34CC5CC(CC(C5)C3)C4)s2)c1 [Example 78, N-([2,2′-Bithiophen]-5-ylmethyl)adamantan-1-amine] |  |  | B (key: (A)=31-95%; (B)=0-30%) | A (key: (A)=31-95%; (B)=0-30%)
NC(=O)COc1ccc(CNC23CC4CC(CC(C4)C2)C3)cc1 [Example 39, 2-(4-((Adamantan-1-ylamino)methyl)phenoxy)acetamide] |  |  | B (key: (A)=31-95%; (B)=0-30%) | B (key: (A)=31-95%; (B)=0-30%)
COc1ccc2cc(CNC34CC5CC(CC(C5)C3)C4)[nH]c2c1 [Example 186a, N-((6-methoxy-1H-indol-2-yl)methyl)adamantan-1-amine] | B (key: (A)=31-95%; (B)=0-30%) | A (key: (A)=31-95%; (B)=0-30%) |  | 
COC(=O)C(Cc1cnc[nH]1)NCC12CC3CC(CC(C3)C1)C2 (stereo not drawn) [Example 3, 2-[(Adamantan-1-ylmethyl)-amino]-3-(3H-imidazol-4-yl)-propionic acid methyl ester] |  |  | B (key: (A)=31-95%; (B)=0-30%) | B (key: (A)=31-95%; (B)=0-30%)
COc1cc(CNC23CC4CC(CC(C4)C2)C3)ccc1O [Example 50, 4-(Adamantan-1-ylaminomethyl)-2-methoxy-phenol] |  |  | A (key: (A)=31-95%; (B)=0-30%) | B (key: (A)=31-95%; (B)=0-30%)
c1cc(CNC23CC4CC(CC(C4)C2)C3)cc(-c2cccs2)c1 [Example 34a, N-(3-(thiophen-2-yl)benzyl)adamantan-1-amine] | A (key: (A)=31-95%; (B)=0-30%) | B (key: (A)=31-95%; (B)=0-30%) |  | 
Cc1nn2cc(CNC3C4CC5CC(C4)CC3C5)nc2s1 (stereo not drawn) [Example 106, Adamantan-2-yl-(2-methyl-imidazo[2,1-b][1,3,4]thiadiazol-6-ylmethyl)-amine] |  |  | A (key: (A)=31-95%; (B)=0-30%) | B (key: (A)=31-95%; (B)=0-30%)
COc1ccc(CNC23CC4CC(CC(C4)C2)C3)cc1 [Example 16, Adamantan-1-yl-(4-methoxy-benzyl)-amine] |  |  | A (key: (A)=31-95%; (B)=0-30%) | A (key: (A)=31-95%; (B)=0-30%)
c1nc(-c2ccc(CNC34CC5CC(CC(C5)C3)C4)cc2)no1 [Example 40, Adamantan-1-yl-(4-[1,2,4]oxadiazol-3-yl-benzyl)-amine] |  |  | B (key: (A)=31-95%; (B)=0-30%) | A (key: (A)=31-95%; (B)=0-30%)
Oc1cc(O)c(CNC23CC4CC(CC(C4)C2)C3)c(O)c1 [Example 70, 2-(Adamantan-1-ylaminomethyl)-benzene-1,3,5-triol] |  |  | B (key: (A)=31-95%; (B)=0-30%) | B (key: (A)=31-95%; (B)=0-30%)
CC(=O)c1ccc(CNC23CC4CC(CC(C4)C2)C3)cc1 [Example 44a] | B (key: (A)=31-95%; (B)=0-30%) | B (key: (A)=31-95%; (B)=0-30%) |  | 
Oc1ccc(CNC23CC4CC(CC(C4)C2)C3)cc1 [Example 9, 4-(Adamantan-1-ylaminomethyl)-phenol] |  |  | B (key: (A)=31-95%; (B)=0-30%) | A (key: (A)=31-95%; (B)=0-30%)
Oc1ccc(CN2CCC3(CCCCC3)CC2)c(O)c1 [Example 115, 4-(3-Aza-spiro[5.5]undec-3-ylmethyl)-benzene-1,3-diol] |  |  | B (key: (A)=31-95%; (B)=0-30%) | B (key: (A)=31-95%; (B)=0-30%)
Clc1ccc(COc2ccc(CNC34CC5CC(CC(C5)C3)C4)cc2)cc1 [Example 16a, Adamantan-1-yl-[4-(4-chloro-benzyloxy)-benzyl]-amine] | B (key: (A)=31-95%; (B)=0-30%) | A (key: (A)=31-95%; (B)=0-30%) |  | 
c1cn2cc(CNC34CC5CC(CC(C5)C3)C4)nc2s1 [Example 86, Adamantan-1-yl-imidazo[2,1-b]thiazol-6-ylmethyl-amine] |  |  | B (key: (A)=31-95%; (B)=0-30%) | A (key: (A)=31-95%; (B)=0-30%)
c1ccc(-c2nnc(CNC34CC5CC(CC(C5)C3)C4)o2)cc1 [Example 115a, N-((5-phenyl-1,3,4-oxadiazol-2-yl)methyl)adamantan-1-amine] | B (key: (A)=31-95%; (B)=0-30%) | A (key: (A)=31-95%; (B)=0-30%) |  | 

SMILES | V27A OOcyte Inhibition at 100 uM (%) [1] | S31N OOcyte Inhibition at 100 uM (%) [2] | V27A OOcyte Inhibition at 100 uM (%) ([1]; pH 5.5) | S31N OOcyte Inhibition at 100 uM (%) ([2]; pH 5.5)
c1ccc2sc(CNC34CC5CC(CC(C5)C3)C4)nc2c1 [Example 91, Adamantan-1-yl-benzothiazol-2-ylmethyl-amine] |  |  | B (key: (A)=31-95%; (B)=0-30%) | A (key: (A)=31-95%; (B)=0-30%)
c1ccc2sc(CNC34CC5CC(CC(C5)C3)C4)cc2c1 [Example 88, Adamantan-1-yl-benzo[b]thiophen-2-ylmethyl-amine] |  |  | B (key: (A)=31-95%; (B)=0-30%) | A (key: (A)=31-95%; (B)=0-30%)
OC12CC3CC(C1)CC(NCc1ccc(-c4ccccc4)s1)(C3)C2 [Example 191a, 3-[(5-Phenyl-thiophen-2-ylmethyl)-amino]adamantan-1-ol] | B (key: (A)=31-95%; (B)=0-30%) | A (key: (A)=31-95%; (B)=0-30%) |  | 
c1cc2sc(CNC34CC5CC(CC(C5)C3)C4)cc2s1 [Example 81, Adamantan-1-yl-thieno[3,2-b]thiophen-2-ylmethyl-amine] |  |  | B (key: (A)=31-95%; (B)=0-30%) | A (key: (A)=31-95%; (B)=0-30%)
c1csc(CNC23CC4CC(CC(C4)C2)C3)c1 [Example 70a, Adamantan-1-yl-thiophen-2-ylmethyl-amine] | B (key: (A)=31-95%; (B)=0-30%) | B (key: (A)=31-95%; (B)=0-30%) |  | 
C(=C\c1ccccc1)/CNC12CC3CC(CC(C3)C1)C2 [Example 199a, N-cinnamyladamantan-1-amine] | B (key: (A)=31-95%; (B)=0-30%) | A (key: (A)=31-95%; (B)=0-30%) |  | 
Brc1ccc(CNC23CC4CC(CC(C4)C2)C3)cc1 [Example 41, N-(4-Bromobenzyl)adamantan-1-amine] |  |  | B (key: (A)=31-95%; (B)=0-30%) | A (key: (A)=31-95%; (B)=0-30%)
CS(=O)(=O)c1ccc(CNC23CC4CC(CC(C4)C2)C3)cc1 [Example 25, Adamantan-1-yl-(4-methanesulfonyl-benzyl)-amine] |  |  | B (key: (A)=31-95%; (B)=0-30%) | B (key: (A)=31-95%; (B)=0-30%)
Cc1c(CNC23CC4CC(CC(C4)C2)C3)sc2ccccc12 [Example 177a, Adamantan-1-yl-(3-methyl-benzo[b]thiophen-2-ylmethyl)-amine] | B (key: (A)=31-95%; (B)=0-30%) | B (key: (A)=31-95%; (B)=0-30%) |  | 
COc1ccccc1COc1ccc(CNC23CC4CC(CC(C4)C2)C3)cc1 [Example 15a, Adamantan-1-yl-[4-(2-methoxy-benzyloxy)-benzyl]-amine] | B (key: (A)=31-95%; (B)=0-30%) | A (key: (A)=31-95%; (B)=0-30%) |  | 
Cc1ncc(-c2ccc(CNC34CC5CC(CC(C5)C3)C4)s2)s1 [Example 154a, N-((5-(2-methylthiazol-5-yl)thiophen-2-yl)methyl)adamantan-1-amine] | A (key: (A)=31-95%; (B)=0-30%) | A (key: (A)=31-95%; (B)=0-30%) |  | 
c1cc(-c2ccc(CNC34CC5CC(CC(C5)C3)C4)s2)co1 [Example 137a, N-((5-(Furan-3-yl)thiophen-2-yl)methyl)adamantan-1-amine] | B (key: (A)=31-95%; (B)=0-30%) | A (key: (A)=31-95%; (B)=0-30%) |  | 
Clc1ccc(/C=C/CNC23CC4CC(CC(C4)C2)C3)cc1 [Example 200a, N-((E)-3-(4-chlorophenyl)allyl)adamantan-1-amine] | B (key: (A)=31-95%; (B)=0-30%) | A (key: (A)=31-95%; (B)=0-30%) |  | 
Oc1ccc(/C=N/C23CC4CC(CC(C4)C2)C3)cc1 [Example 6] |  |  | B (key: (A)=31-95%; (B)=0-30%) | B (key: (A)=31-95%; (B)=0-30%)
c1coc(-c2ccc(CNC34CC5CC(CC(C5)C3)C4)cn2)c1 [Example 60a, N-((6-(furan-2-yl)pyridin-3-yl)methyl)adamantan-1-amine] | B (key: (A)=31-95%; (B)=0-30%) | A (key: (A)=31-95%; (B)=0-30%) |  | 
Oc1c(F)cc(CNC23CC4CC(CC(C4)C2)C3)cc1Cl [Example 68, 4-(Adamantan-1-ylaminomethyl)-2-chloro-6-fluoro-phenol] |  |  | B (key: (A)=31-95%; (B)=0-30%) | B (key: (A)=31-95%; (B)=0-30%)
c1coc(CNC23CC4CC(CC(C4)C2)C3)c1 [Example 69a, Adamantan-1-yl-furan-2-ylmethyl-amine] | B (key: (A)=31-95%; (B)=0-30%) | B (key: (A)=31-95%; (B)=0-30%) |  | 
CC(NC12CC3CC(CC(C3)C1)C2)c1ccc(C#N)s1 (stereo not drawn) [Example 92a, 5-(1-(adamantan-1-ylamino)ethyl)thiophene-2-carbonitrile] | B (key: (A)=31-95%; (B)=0-30%) | B (key: (A)=31-95%; (B)=0-30%) |  | 
